Source: publication PMC4320596, “Cytotoxicity effect of degraded and undegraded kappa and iota carrageenan in human intestine and liver cell lines” (BMC Complementary and Alternative Medicine, 2014)
“Also recorded” adds a separate entry of the source.

What was measured:
Assay type in all cases: cell-based, human
[1] = test system: HepG2 cells; assay: Acridine orange-ethidium bromide (AO/EtBr) staining, HepG2; conditions: 72 h; degraded k-carrageenan
Method: After the cells were harvested by trypsinisation, they were washed with PBS. A 25 μL sample of cells was stained with 10 μL of a mixture (1:1) of acridine orange and ethidium bromide solution. The concentration of AO/EtBr are […] in 1× PBS. After staining, the cells were viewed under a fluorescence microscope at 200× magnification (Leica DM 2500).

[2] = test system: FHs 74 Int cells; assay: Morphological observation under an inverted microscope, FHs 74 Int; conditions: 72 h; degraded and TAM at 72 h IC50, undegraded at highest concentration
Method: (§1) Approximately 2×10^5 cells were seeded in 2 mL of culture medium in 6-well plates (BD Labware, England) and incubated with 5% CO2 at 37°C for 24 h. The cells were then treated with degraded FGKC, DKC and CGKC at the appropriate concentrations to produce 50% cell viability at 72 hours as pre-determined by the MTT assay. For undegraded carrageenan, the highest concentration with longest treatment period (72 hours) was used to test on the cells. […] The morphology of the treated cells was observed under an inverted microscope at 200× magnification. The observed morphology was compared to the morphology of untreated cells.

[3] = test system: Fa2N-4 cells; assay: Morphological observation under an inverted microscope, Fa2N-4; conditions: 72 h; degraded and TAM at 72 h IC50, undegraded at highest concentration
Method: as §1

[4] = test system: HepG2 cells; assay: Morphological observation under an inverted microscope, HepG2; conditions: 72 h; degraded and TAM at 72 h IC50, undegraded at highest concentration
Method: as §1

[5] = test system: PCNA, MKI67 and survivin gene expression in HepG2 cells; assay: RT-PCR gene expression analysis, HepG2; conditions: 72 h, degraded and tamoxifen at IC50, undegraded at 2000 μg mL^−1
Method: Reverse transcription polymerase chain reaction (RT-PCR) was used to analyze the presence of transcribed mRNA for cell proliferation gene marker. […] The extracted RNA was dissolved in DEPC-treated water. The RNA concentration and sample purity was determined using spectrophotometer (Bio Photometer plus, Eppendorf). Two steps RT-PCR were conducted where 1 μg of total RNA was used in the first strand cDNA synthesis using RevertAid First Strand cDNA Synthesis Kit (ThermoScientific, USA). Subsequent PCR reaction was done utilizing Mastercyler Gradient (Eppendorf, Germany). The expression of cell proliferation markers, e.g. PCNA, MKI67 and BIRC5 or known as survivin were analyzed with GAPDH gene acting as the endogenous control. […] PCR amplification were under the following conditions: initial denaturation at 95°C for 2 min, denaturation at 95°C for 1 min, primer annealing as stated in Table 1, extension at 72°C for 45 second, and final extension at 72°C for 5 min. […] The separated DNA fragments were visualized by ethidium bromide staining and photographed using the Alpha Imaging System (Alpha Innotech, San Leandro, CA, USA) under UV transillumination.

[6] = test system: HepG2 cells; assay: DNA fragmentation by agarose gel electrophoresis, HepG2; conditions: 1% agarose gel
Method: Caco-2 and HepG2 cells treated with degraded FGKC, DKC and CGKC were lysed with lysis buffer (10 mM Tris–HCl, 5 mM EDTA, […], 0.2% SDS) and incubated at 60°C for 5 min. The RNA in each sample was digested with 10 μL of RNase at 37°C for 1 hour, and proteinase K (more than 3 U uL^−1) was added before incubating at 50°C for an additional 1.5 h. NaCl (5 M) was then added, and the samples were incubated on ice for 5 min to precipitate the protein. The cells were centrifuged for 15 min at highest speed at 4°C, after which supernatant was collected, and an equal volume of isopropanol was added to precipitate the DNA. Then, each sample was centrifuged again at 10,000 g for 10 min at 4°C. Supernatants were discarded, and the pellets were washed with 70% cold ethanol. The DNA sample was left to dry at room temperature before adding 1× TE buffer. Electrophoresis was carried out in a 1.0% (w/v) agarose gel for 1.5 h at 70 V. The gel was examined under UV transillumination following ethidium bromide staining to determine the extent of apoptotic DNA fragmentation.

CC/C(=C(\c1ccccc1)c1ccc(OCCN(C)C)cc1)c1ccccc1 [TAM, Tamoxifen]
Mode of cell death by AO/EtBr staining, HepG2 [1]: showed apoptosis
Cell morphology before staining, FHs 74 Int [2]: cell shrinkage
Cell morphology before staining, Fa2N-4 [3]: cell shrinkage
Cell morphology before staining, HepG2 [4]: cell shrinkage
MKI67 gene expression, HepG2 [5]: lower than control; also recorded: undetectably low
PCNA gene expression, HepG2 [5]: lower than control
survivin gene expression, HepG2 [5]: lower than control; also recorded: not expressed
DNA fragmentation (DNA ladder), HepG2 [6]: fragmented
